Results published in patent publication US5447942A, “N-derivatives of (phenylethyl-β-ol) amine, a process for their preparation and pharamaceutical compositions containing the same” (Societe de Conseils de Recherches et d'Applications …, priority 1992, dated 1995).
Read-outs that look alike come from different tables or passages of the source.

Tests used:
[1] = system: acetylcholine induced bronchoconstriction; experiment: inhibition of acetylcholine induced bronchoconstriction, Konzett and Rossler method (Table B); assay type: in vivo, Male Hartley Guinea Pigs; settings: IV; for inhibition in vivo at 0.13 µmol/kg / inhibition in vivo at 0.42 µmol/kg / inhibition in vivo at 1.53 µmol/kg / inhibition in vivo at 3.6 µmol/kg / inhibition in vivo at 0.46 µmol/kg / inhibition in vivo at 1.5 µmol/kg / inhibition in vivo at 1.48 µmol/kg / inhibition in vivo at 0.47 µmol/kg / inhibition in vivo at 0.48 µmol/kg: Cavia porcellus
Procedure: Male Hartley Guinea Pigs (450-500 g) were anaesthetised with ethyl carbamate and prepared for recording bronchoconstriction according to Konzett and Rossler method (Naunym Schmiedebergers Arch. Exp. Path. Pharmakol (1940) 195, 71). To abolish spontaneous respiration, an injection IV of vecuronium bromide (2 mg/kg) was made. Bronchoconstriction was induced by IV injection of Acetylcholine and the animals received one dose of β agonist compound (IV) 5 minutes later.

[2] = biological target: β adrenoceptors; experiment: radioligand binding studies in lung membrane (Table A, binding affinity)
From the text: The results are summarised in Table A. Generally, the activity is better for the trans than the cis isomer.

[3] = 5 min, 0.13 μmol/kg, 5 mn, read-out: bronchoconstriction protection, score 5 mn
[4] = 0.25 h, 0.13 μmol/kg, 15 mn, read-out: bronchoconstriction protection, score 15 mn
[5] = 0.5 h, 0.13 μmol/kg, 30 mn, read-out: bronchoconstriction protection, score 30 mn
[6] = 5 min, 0.46 μmol/kg, 5 mn, read-out: bronchoconstriction protection, score 5 mn
[7] = 0.25 h, 0.46 μmol/kg, 15 mn, read-out: bronchoconstriction protection, score 15 mn
[8] = 0.5 h, 0.46 μmol/kg, 30 mn, read-out: bronchoconstriction protection, score 30 mn

**Q.** With `COc1cc([C@H]2CC[C@H](CNCC(O)c3ccc(O)c(CO)c3)O2)cc(OC)c1OC` (relative stereo) [Example 2 (trans), 2-(3',4',5'-trimethoxyphenyl)-5-[N-[β-(3'-hydroxymethyl-4'-hydroxy-phenyl)-β-hydroxy-ethyl]-aminomethyl]-tetrahydrofuran] as the compound, how does the “bronchoconstriction protection, duration of action” value (“bronchoconstriction protection” for short) ([1]; 0.13 μmol/kg) read?
**A.** 30 mn

**Q.** What about the “bronchoconstriction protection” value ([1]; 0.42 μmol/kg) of the same compound?
**A.** > 50 mn

**Q.** What about the inhibition in vivo at 0.13 µmol/kg [1, 3] of the same compound?
**A.** > 75%

**Q.** What about the inhibition in vivo at 0.42 µmol/kg ([1]; 5 min, 0.42 μmol/kg, 5 mn, read-out: bronchoconstriction protection, score 5 mn) of the same compound?
**A.** > 75%

**Q.** And the inhibition in vivo at 0.13 µmol/kg [1, 4]?
**A.** 50 to 75%

**Q.** What about the inhibition in vivo at 0.42 µmol/kg ([1]; 0.25 h, 0.42 μmol/kg, 15 mn, read-out: bronchoconstriction protection, score 15 mn) of the same compound?
**A.** > 75%

**Q.** What about the inhibition in vivo at 0.13 µmol/kg [1, 5] of the same compound?
**A.** 20 to 50%

**Q.** What about the inhibition in vivo at 0.42 µmol/kg ([1]; 0.5 h, 0.42 μmol/kg, 30 mn, read-out: bronchoconstriction protection, score 30 mn) of the same compound?
**A.** > 75%

**Q.** What about the Ki [2] of the same compound?
**A.** 80 nM

**Q.** For `COc1ccc([C@H]2CC[C@H](CNCC(O)c3ccc(O)c(CO)c3)O2)c(OC)c1OC` (relative stereo) [Example 3 (trans), 2-(2',3',4'-trimethoxyphenyl)-5-[N-[β-(3'-hydroxymethyl-4'-hydroxy-phenyl)-β-hydroxy-ethyl]-aminomethyl]-tetrahydrofuran], which “bronchoconstriction protection” value ([1]; 1.53 μmol/kg) is on record?
**A.** 5 mn

**Q.** And the “bronchoconstriction protection” value ([1]; 3.6 μmol/kg)?
**A.** 30 mn

**Q.** What about the inhibition in vivo at 1.53 µmol/kg ([1]; 5 min, 1.53 μmol/kg, 5 mn, read-out: bronchoconstriction protection, score 5 mn) of the same compound?
**A.** 20 to 50%

**Q.** What about the inhibition in vivo at 3.6 µmol/kg ([1]; 5 min, 3.6 μmol/kg, 5 mn, read-out: bronchoconstriction protection, score 5 mn) of the same compound?
**A.** 50 to 75%

**Q.** And the inhibition in vivo at 1.53 µmol/kg ([1]; 0.25 h, 1.53 μmol/kg, 15 mn, read-out: bronchoconstriction protection, score 15 mn)?
**A.** < 20%

**Q.** And the inhibition in vivo at 3.6 µmol/kg ([1]; 0.25 h, 3.6 μmol/kg, 15 mn, read-out: bronchoconstriction protection, score 15 mn)?
**A.** 20 to 50%

**Q.** And the inhibition in vivo at 1.53 µmol/kg ([1]; 0.5 h, 1.53 μmol/kg, 30 mn, read-out: bronchoconstriction protection, score 30 mn)?
**A.** < 20%

**Q.** And the inhibition in vivo at 3.6 µmol/kg ([1]; 0.5 h, 3.6 μmol/kg, 30 mn, read-out: bronchoconstriction protection, score 30 mn)?
**A.** 20 to 50%

**Q.** And the Ki [2]?
**A.** 1600 nM

**Q.** Which “bronchoconstriction protection” value ([1]; 0.46 μmol/kg) does the source give for `OCc1cc(C(O)CNC[C@@H]2CC[C@H](c3ccccc3Cl)O2)ccc1O` (relative stereo) [Example 4 (cis), 2-(2'-chlorophenyl)-5-[N-[β-(3'-hydroxymethyl-4'-hydroxy-phenyl)-β-hydroxy-ethyl]-aminomethyl]-tetrahydrofuran] here?
**A.** 10 mn

**Q.** And the “bronchoconstriction protection” value ([1]; 1.5 μmol/kg)?
**A.** < 40 mn

**Q.** What about the inhibition in vivo at 0.46 µmol/kg [1, 6] of the same compound?
**A.** 50 to 75%

**Q.** What about the inhibition in vivo at 1.5 µmol/kg ([1]; 5 min, 1.5 μmol/kg, 5 mn, read-out: bronchoconstriction protection, score 5 mn) of the same compound?
**A.** 50 to 75%

**Q.** What about the inhibition in vivo at 0.46 µmol/kg [1, 7] of the same compound?
**A.** < 20%

**Q.** And the inhibition in vivo at 1.5 µmol/kg ([1]; 0.25 h, 1.5 μmol/kg, 15 mn, read-out: bronchoconstriction protection, score 15 mn)?
**A.** 50 to 75%

**Q.** And the inhibition in vivo at 0.46 µmol/kg [1, 8]?
**A.** < 20%

**Q.** And the inhibition in vivo at 1.5 µmol/kg ([1]; 0.5 h, 1.5 μmol/kg, 30 mn, read-out: bronchoconstriction protection, score 30 mn)?
**A.** 20 to 50%

**Q.** And the Ki [2]?
**A.** 347 nM

**Q.** What does the source list for `OCc1cc(C(O)CNC[C@H]2CC[C@H](c3ccccc3Cl)O2)ccc1O` (relative stereo) [Example 4 (trans), 2-(2'-chlorophenyl)-5-[N-[β-(3'-hydroxymethyl-4'-hydroxy-phenyl)-β-hydroxy-ethyl]-aminomethyl]-tetrahydrofuran]?
**A.** bronchoconstriction protection, duration of action ([1]; 0.46 μmol/kg): 10 mn; bronchoconstriction protection, duration of action ([1]; 1.48 μmol/kg): > 25 mn; inhibition in vivo at 0.46 µmol/kg [1, 6]: > 75%; inhibition in vivo at 1.48 µmol/kg ([1]; 5 min, 1.48 μmol/kg, 5 mn, read-out: bronchoconstriction protection, score 5 mn): > 75%; inhibition in vivo at 0.46 µmol/kg [1, 7]: < 20%; inhibition in vivo at 1.48 µmol/kg ([1]; 0.25 h, 1.48 μmol/kg, 15 mn, read-out: bronchoconstriction protection, score 15 mn): 50 to 75%; inhibition in vivo at 0.46 µmol/kg [1, 8]: < 20%; inhibition in vivo at 1.48 µmol/kg ([1]; 0.5 h, 1.48 μmol/kg, 30 mn, read-out: bronchoconstriction protection, score 30 mn): 50 to 75%; Ki [2]: 400 nM

**Q.** What does the source list for `OCc1cc(C(O)CNC[C@@H]2CC[C@H](c3cccc(Cl)c3)O2)ccc1O` (relative stereo) [Example 5 (cis), 2-(3'-chlorophenyl)-5-[N-[β-(3'-hydroxymethyl-4'-hydroxy-phenyl)-β-hydroxy-ethyl]-aminomethyl]-tetrahydrofuran]?
**A.** bronchoconstriction protection, duration of action ([1]; 0.47 μmol/kg): < 10 mn; inhibition in vivo at 0.47 µmol/kg ([1]; 5 min, 0.47 μmol/kg, 5 mn, read-out: bronchoconstriction protection, score 5 mn): 20 to 50%; inhibition in vivo at 0.47 µmol/kg ([1]; 0.25 h, 0.47 μmol/kg, 15 mn, read-out: bronchoconstriction protection, score 15 mn): < 20%; inhibition in vivo at 0.47 µmol/kg ([1]; 0.5 h, 0.47 μmol/kg, 30 mn, read-out: bronchoconstriction protection, score 30 mn): < 20%; Ki [2]: 760 nM

**Q.** For `OCc1cc(C(O)CNC[C@H]2CC[C@H](c3cccc(Cl)c3)O2)ccc1O` (relative stereo) [Example 5 (trans), 2-(3'-chlorophenyl)-5-[N-[β-(3'-hydroxymethyl-4'-hydroxy-phenyl)-β-hydroxy-ethyl]-aminomethyl]-tetrahydrofuran], which “bronchoconstriction protection” value ([1]; 0.46 μmol/kg) is on record?
**A.** > 20 mn

**Q.** And the inhibition in vivo at 0.46 µmol/kg [1, 6]?
**A.** 50 to 75%

**Q.** And the inhibition in vivo at 0.46 µmol/kg [1, 7]?
**A.** 20 to 50%

**Q.** And the inhibition in vivo at 0.46 µmol/kg [1, 8]?
**A.** 20 to 50%

**Q.** And the Ki [2]?
**A.** 750 nM

**Q.** `COc1ccc([C@H]2CC[C@@H](CNCC(O)c3ccc(O)c(CO)c3)O2)cc1OC` (relative stereo) [Example 8 (cis), 2-(3',4'-dimethoxyphenyl)-5-[N-[β-(3'-hydroxymethyl-4'-hydroxy-phenyl)-β-hydroxyethyl]-aminomethyl]-tetrahydrofuran] was tested. Which “bronchoconstriction protection” value ([1]; 0.48 μmol/kg) did it give?
**A.** < 30 mn

**Q.** What about the inhibition in vivo at 0.48 µmol/kg ([1]; 5 min, 0.48 μmol/kg, 5 mn, read-out: bronchoconstriction protection, score 5 mn) of the same compound?
**A.** 50 to 75%

**Q.** What about the inhibition in vivo at 0.48 µmol/kg ([1]; 0.25 h, 0.48 μmol/kg, 15 mn, read-out: bronchoconstriction protection, score 15 mn) of the same compound?
**A.** 20 to 50%

**Q.** And the inhibition in vivo at 0.48 µmol/kg ([1]; 0.5 h, 0.48 μmol/kg, 30 mn, read-out: bronchoconstriction protection, score 30 mn)?
**A.** < 20%

**Q.** And the Ki [2]?
**A.** 1100 nM

**Q.** What does the source list for `COc1ccc([C@H]2CC[C@H](CNCC(O)c3ccc(O)c(CO)c3)O2)cc1OC` (relative stereo) [Example 8 (trans), 2-(3',4'-dimethoxyphenyl)-5-[N-[β-(3'-hydroxymethyl-4'-hydroxy-phenyl)-β-hydroxyethyl]-aminomethyl]-tetrahydrofuran]?
**A.** bronchoconstriction protection, duration of action ([1]; 0.13 μmol/kg): 30 mn; bronchoconstriction protection, duration of action ([1]; 0.46 μmol/kg): > 30 mn; inhibition in vivo at 0.13 µmol/kg [1, 3]: 50 to 75%; inhibition in vivo at 0.46 µmol/kg [1, 6]: 50 to 75%; inhibition in vivo at 0.13 µmol/kg [1, 4]: 20 to 50%; inhibition in vivo at 0.46 µmol/kg [1, 7]: 50 to 75%; inhibition in vivo at 0.13 µmol/kg [1, 5]: 20 to 50%; inhibition in vivo at 0.46 µmol/kg [1, 8]: 20 to 50%; Ki [2]: 1050 nM

**Q.** Which “bronchoconstriction protection” value ([1]; 0.46 μmol/kg) does the source give for `COc1ccc([C@H]2CC[C@@H](CNCC(O)c3ccc(O)c(CO)c3)O2)cc1` (relative stereo) [Example 9 (cis), 2-(4'-methoxyphenyl)-5-[N-[β-(3'-hydroxymethyl-4'-hydroxy-phenyl)-β-hydroxy-ethyl]-aminomethyl]-tetrahydrofuran] here?
**A.** 20 mn

**Q.** What about the inhibition in vivo at 0.46 µmol/kg [1, 6] of the same compound?
**A.** 50 to 75%

**Q.** And the inhibition in vivo at 0.46 µmol/kg [1, 7]?
**A.** 20 to 50%

**Q.** And the inhibition in vivo at 0.46 µmol/kg [1, 8]?
**A.** < 20%

**Q.** And the Ki [2]?
**A.** 810 nM

**Q.** How did the “bronchoconstriction protection” value ([1]; 0.46 μmol/kg) turn out when `COc1ccc([C@H]2CC[C@H](CNCC(O)c3ccc(O)c(CO)c3)O2)cc1` (relative stereo) [Example 9 (trans), 2-(4'-methoxyphenyl)-5-[N-[β-(3'-hydroxymethyl-4'-hydroxy-phenyl)-β-hydroxy-ethyl]-aminomethyl]-tetrahydrofuran] was run?
**A.** > 30 mn

**Q.** And the inhibition in vivo at 0.46 µmol/kg [1, 6]?
**A.** > 75%

**Q.** What about the inhibition in vivo at 0.46 µmol/kg [1, 7] of the same compound?
**A.** 50 to 75%

**Q.** What about the inhibition in vivo at 0.46 µmol/kg [1, 8] of the same compound?
**A.** 20 to 50%

**Q.** And the Ki [2]?
**A.** 590 nM

**Q.** How did the Ki [2] turn out when `COc1cc([C@H]2CC[C@@H](CCCNCC(O)c3ccc(O)c(CO)c3)O2)cc(OC)c1OC` (relative stereo) [Example 15 (cis), 2-(3',4',5'-trimethoxyphenyl)-5-[-N-[β-(3'-hydroxymethyl-4'-hydroxy-phenyl)-β-hydroxy-ethyl]-aminopropyl]-tetrahydrofuran] was run?
**A.** 1900 nM

**Q.** How did the Ki [2] turn out when `COc1cc(C2CCC(CNCC(O)c3ccc(O)c(CO)c3)O2)cc(OC)c1OC` (single isomer, unassigned) [Example 2 (trans) (+), 2-(3',4',5'-trimethoxyphenyl)-5-[N-[β-(3'-hydroxymethyl-4'-hydroxy-phenyl)-β-hydroxy-ethyl]-aminomethyl]-tetrahydrofuran] was run?
**A.** 50 nM

**Q.** Which Ki [2] does the source give for `COc1cc(C2CCC(CNCC(O)c3ccc(O)c(CO)c3)O2)cc(OC)c1OC` (single isomer, unassigned) [Example 2 (trans) (-), 2-(3',4',5'-trimethoxyphenyl)-5-[N-[β-(3'-hydroxymethyl-4'-hydroxy-phenyl)-β-hydroxy-ethyl]-aminomethyl]-tetrahydrofuran] here?
**A.** 350 nM

**Q.** How did the Ki [2] turn out when `CCCC1CCC(CNCC(O)c2ccc(O)c(CO)c2)O1` (stereo not drawn) [Example 11, 2-propyl-5-[N-[β-(3'-hydroxymethyl-4'-hydroxy-phenyl)-β-hydroxy-ethyl]-aminomethyl]-tetrahydrofuran] was run?
**A.** 520 nM
